From PubChem BioAssay AID330 (DTP/NCI, 2004) come the findings set out here.

For this experiment, the system named is P388 leukemia ip, CD2F1 mice, survival T/C. As to the kind of experiment: NCI In Vivo Anticancer Drug Screen. Data for tumor model P388 Leukemia (intraperitoneal) in CD2F1 (CDF1) mice. The settings on record: endpoint: median survival time, higher = longer survival. In short, it runs like this:
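Mice carrying the transplanted tumor received test compound or vehicle. Survival was recorded in each group, and the value is the treated-group measurement divided by that of the vehicle-treated control group.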

Where [1] appears, read: dose: 60.0 mg/kg/injection, schedule: Q01DX005 (ip), vehicle: saline with Tween-80.
Where [2] appears, read: dose: 120.0 mg/kg/injection, schedule: Q01DX005 (ip), vehicle: saline with Tween-80.
Where [3] appears, read: dose: 240.0 mg/kg/injection, schedule: Q01DX005 (ip), vehicle: saline with Tween-80.
Where [4] appears, read: dose: 50.0 mg/kg/injection, schedule: Q01DX009 (ip), vehicle: Klucel (hydroxypropylcellulose) (HPC).
Where [5] appears, read: dose: 100.0 mg/kg/injection, schedule: Q01DX009 (ip), vehicle: Klucel (hydroxypropylcellulose) (HPC).
Setting [6] is: dose: 200.0 mg/kg/injection, schedule: Q01DX009 (ip), vehicle: Klucel (hydroxypropylcellulose) (HPC).
[7] abbreviates: dose: 50.0 mg/kg/injection, schedule: Q01DX005 (ip), vehicle: Klucel (hydroxypropylcellulose) (HPC).
Setting [8] is: dose: 100.0 mg/kg/injection, schedule: Q01DX005 (ip), vehicle: Klucel (hydroxypropylcellulose) (HPC).
Where [9] appears, read: dose: 200.0 mg/kg/injection, schedule: Q01DX005 (ip), vehicle: Klucel (hydroxypropylcellulose) (HPC).
Setting [10] is: dose: 50.0 mg/kg/injection, schedule: Q04DX003 (ip), vehicle: saline.

Structures are written as SMILES. Several values for one entry are separate records, joined by “and”; a condition that tells them apart may be missing. Identical values can stand only once. Toxic doses and inconclusive results are not listed.

As for `CC[C@H](C)C(NC(=O)[C@H]1N=C(c2csc(C(O)Cc3ccccc3)n2)OC1C)C(=O)OC` (some centres not stated), the T/C reads like this: under setting [1], 99 % of control; under setting [2], 98 % of control; under setting [3], 100 % of control.
Take `Fc1ccc(NC(=S)SCc2ccc3c(c2)OCO3)cc1F`: the T/C is, setting by setting: under setting [4], 119 % of control; under setting [5], 102 % of control; under setting [6], 86 % of control.
Regarding `Cn1c(=O)c2c(O)c(-c3ccccc3)c(=O)n3c4ccccc4n(c1=O)c23`, the T/C runs as follows: under setting [1], 99 % of control; under setting [2], 96 % of control; under setting [3], 97 % of control.
For the compound `ClC1=NOC(c2ccccc2)C1` (configuration not stated), the T/C runs as follows: (dose: 6.25 mg/kg/injection, schedule: Q01DX005 (ip), vehicle: distilled water + Tween-80) 110 % of control; (dose: 12.5 mg/kg/injection, schedule: Q01DX005 (ip), vehicle: distilled water + Tween-80) 97 % of control; (dose: 25.0 mg/kg/injection, schedule: Q01DX005 (ip), vehicle: distilled water + Tween-80) 100 % of control; (dose: 50.0 mg/kg/injection, schedule: Q01DX005 (ip), vehicle: distilled water + Tween-80) 105 % of control and 107 % of control; (dose: 100.0 mg/kg/injection, schedule: Q01DX005 (ip), vehicle: distilled water + Tween-80) 99 % of control; (dose: 200.0 mg/kg/injection, schedule: Q01DX005 (ip), vehicle: distilled water + Tween-80) 108 % of control.
In the case of `[O-]c1n[n+](Cc2ccc(Br)cc2)no1`, the T/C reads like this: (dose: 50.0 mg/kg/injection, schedule: Q04DX003 (ip), vehicle: Klucel (hydroxypropylcellulose) (HPC)) 96 % of control; (dose: 100.0 mg/kg/injection, schedule: Q04DX003 (ip), vehicle: Klucel (hydroxypropylcellulose) (HPC)) 100 % of control; (dose: 200.0 mg/kg/injection, schedule: Q04DX003 (ip), vehicle: Klucel (hydroxypropylcellulose) (HPC)) 110 % of control.
Turning to `CC[C@@]1(CCC(=O)OC)CCC(=O)N2CC[C@@]3(C(=O)Nc4ccccc43)[C@@H]21`, the T/C runs as follows: under setting [7], 100 % of control; under setting [8], 95 % of control; under setting [9], 91 % of control.
As to `C=C(CN(C)C)C(=O)c1ccc(OC)cc1OC`, the T/C runs as follows: (dose: 1.9 mg/kg/injection, schedule: Q04DX002 (ip), vehicle: saline) 95 % of control; (dose: 3.8 mg/kg/injection, schedule: Q04DX002 (ip), vehicle: saline) 106 % of control; (dose: 7.5 mg/kg/injection, schedule: Q04DX002 (ip), vehicle: saline) 102 % of control and 98 % of control.
`CC(=O)SCC(C)C(=O)N1CCCC1C(=O)NC(Cc1ccccc1)C(=O)O` (configuration not stated): the T/C is 110 % of control under setting [7], 98 % of control under setting [8] and 104 % of control under setting [9].
For the compound `Cc1ccc(S(=O)(=O)OC2CN(S(=O)(=O)c3ccc(C)cc3)C2)cc1`, the T/C runs as follows: under setting [7], 100 % of control; under setting [8], 91 % of control; under setting [9], 90 % of control.
Regarding `N/C(=N\S(=O)(=O)c1cc(C(F)(F)F)cc(C(F)(F)F)c1)c1ccncc1`, the T/C (dose: 50.0 mg/kg/injection, schedule: Q01DX009 (ip), vehicle: saline with Tween-80) is 86 % of control and the T/C (dose: 100.0 mg/kg/injection, schedule: Q01DX009 (ip), vehicle: saline with Tween-80) is 90 % of control.
As to `CCCC12C=C(OC)C(=O)C(C1=O)C(c1ccc3c(c1)OCO3)C2C` (configuration not stated), the T/C by setting is: (dose: 8.75 mg/kg/injection, schedule: Q01DX005 (ip), vehicle: Klucel (hydroxypropylcellulose) (HPC)) 118 % of control; (dose: 17.5 mg/kg/injection, schedule: Q01DX005 (ip), vehicle: Klucel (hydroxypropylcellulose) (HPC)) 110 % of control; (dose: 35.0 mg/kg/injection, schedule: Q01DX005 (ip), vehicle: Klucel (hydroxypropylcellulose) (HPC)) 100 % of control.
`O=C(O)c1cccc(-c2nn[nH]n2)c1`: the T/C was 93 % of control under setting [7], 90 % of control under setting [8] and 102 % of control under setting [9].
Consider `Cn1ncc2c(NCCc3ccccc3)ncnc21`, for which the T/C (dose: 100.0 mg/kg/injection, schedule: Q04DX003 (ip), vehicle: saline with Tween-80) was 109 % of control.
In the case of `O=c1[nH]c(=O)c2cc([N+](=O)[O-])cc([N+](=O)[O-])c2[nH]1`, the T/C runs as follows: under setting [10], 118 % of control; (dose: 100.0 mg/kg/injection, schedule: Q04DX003 (ip), vehicle: saline) 89 % of control.
As to `CS(C)=O.CS(C)=O.[Cl][Rh]([Cl])([Cl])[Cl]`, the T/C was 100 % of control (dose: 12.5 mg/kg/injection, schedule: Q04DX003 (ip), vehicle: saline); 109 % of control (dose: 25.0 mg/kg/injection, schedule: Q04DX003 (ip), vehicle: saline); 118 % of control under setting [10].
For `COC(=O)C1=Cc2c(n3ncnc3n(-c3ccccc3)c2=O)N(S(=O)(=O)c2ccc(C)cc2)CC1`, the T/C reads like this: under setting [1], 93 % of control; under setting [2], 95 % of control; under setting [3], 97 % of control.
Consider `Cc1cccc(=O)[n-]1.Cc1cccc(=O)[n-]1.Cc1cccc(=O)[n-]1.Cc1cccc(=O)[n-]1.Cc1cccc(=O)[n-]1.Cc1cccc(=O)[n-]1.Cc1cccc(=[OH+])[n-]1.Cc1cccc(=[OH+])[n-]1.[Rh+2].[Rh+2].[Rh+2].[Rh+2]`, for which the T/C runs as follows: (dose: 100.0 mg/kg/injection, schedule: Q04DX002 (ip), vehicle: Klucel (hydroxypropylcellulose) (HPC)) 104 % of control; (dose: 200.0 mg/kg/injection, schedule: Q04DX002 (ip), vehicle: Klucel (hydroxypropylcellulose) (HPC)) 113 % of control.
In the case of `Cc1cc(=O)n2c(nc3cc([N+](=O)[O-])ccc32)s1`, the T/C under setting [4] was 98 % of control, the T/C under setting [5] was 99 % of control and the T/C under setting [6] was 98 % of control.
